The text below walks through data of patent US12492403B2, “Aptamers and the use thereof in the treatment of cancer” (FUNDACIÓN PARA LA INVESTIGACIÓN BIOMÉDICA DEL HOSPITAL …, priority 2018, dated 2025).

Holding throughout (assay type): cell-based, human
The subject of data set [1] is MDA-MB-231 cells. Put plainly: Transwell invasion assay with Matrigel. As to conditions: MDA-MB-231, 400 nM. On the procedure:
(§1) FIGS. 13A, 13B and 13C. Effect of aptamer apMNKQ2 on the migration and invasion of breast cell lines. The three lines of study were seeded in 6-well plates at a density of 2.5×10^5 cells/well and transfected at 24 hours with apMNKQ2 at the established working concentrations. The cell lines were deprived of serum after 6 hours and collected and re-seeded (4×10^4 cells/well) after 24 hours in a transwell […], in order to perform migration and invasion assays, respectively. At 24 hours, the membranes of the transwell are stained with Hoechst and cells that have gone through the membranes are quantified using fluorescence microscopy (FIG. 13A). The boxes (FIGS. 13B and 13C) represent the mean±the maximum and minimum of 4-5 independent experiments (*p<0.05, **p<0.01, and ***p<0.001 with respect to the control aptamer AT).
(§2) Cell migration and invasion assays were performed using transwell (Corning, USA). […] After that time, they were collected, counted, and reseeded 4×10^4 cells in 300 μl of a serum-free complete medium inside the transwell (migration) or a transwell on which a layer of 100 μL of Matrigel (Corning, USA) (invasion) had previously been polymerized. […] Finally, two washes in PBS were performed, and 5 photographs of each membrane of the transwell were taken using a fluorescence microscope (Olympus IX70). The number of cells was analyzed using the imageJ program. […]

For data set [2], the system named is MDA-MB-468 cells. Briefly: Transwell invasion assay with Matrigel. As to conditions: MDA-MB-468, 50 nM. The protocol:
as §1, §2

Data set [3] has as its system MDA-MB-231 cells. Briefly: Apoptosis by annexin V/propidium iodide flow cytometry. As to conditions: MDA-MB-231, working concentration 400 nM, 24 hours. On the procedure:
(§3) FIGS. 10A-10C. Analysis of the effect of the aptamer on apoptosis with annexin V in breast cell lines. MCF7 (FIG. 10A), MDA-MB-231 (FIG. 10B), and MDA-MB-468 (FIG. 10C) cells were seeded in 6-well plates at a density of 2.5×10^5 cells/well and transfected at 24 hours with apMNKQ2 at the set working concentrations. After 24 hours, the cells were collected, fixed, and stained with annexin V-FITC and propidium iodide. Finally, they were analyzed by cytometry. The bars represent the mean±SEM of 3 independent experiments (*p<0.05, **p<0.01, and ***p<0.001).
(§4) The assays were carried out by seeding 5×10^5 cells/well in 6-well plates and transfecting the cells 24 hours later. After 24 hours of transfection, the cells were collected and washed twice with PBS. They were then resuspended in a 1× binding buffer and left at a concentration of 1×10^6 cells/mL. Aliquots of 10^5 cells were separated from the preceding solution, as many as the number of treatments, and the annexin V and propidium iodide dyes were added to obtain: a double negative control (without labeling, living cells), a double positive for both types of labeling (late apoptotic cells and necrotic cells will be labeled), and cells labeled separately with annexin V and propidium iodide. They were incubated in darkness for 15 minutes at room temperature and brought to a final volume of 500 μL with a 1× binding buffer. Finally, the cells were passed through a flow cytometer (BD FACSCalibur™, BDBiosciences, USA) within a time no more than 1 hour after labeling. The data obtained was analyzed by means of the Flowing software 2.5.1 program.
(§5) The translocation of the […] from the inner face of the plasma membrane of the cells to the outer face by translocases is a process characteristic of apoptotic cells. To study this process, assays with annexin V-fluorescein (FITC) were performed in three cell lines. This recombinant protein binds to the phosphatidylserine residues exposed on the outer face of the plasma membrane of apoptotic cells. Together with said recombinant protein, propidium iodide (IP), an impermeable DNA marker that only enters cells when the membrane is compromised, was also used. To perform these assays, the cells were transfected with apMNKQ2 and with the control aptamer AT at the working concentrations. At 24 hours, the cells were collected, fixed, and stained with annexin V-FITC and propidium iodide. Finally, the cells were analyzed by means of flow cytometry and differentiation was made between non-apoptotic cells (annexin V-FICT negative/IP negative), apoptotic cells (annexin V-FICT positive/IP negative), late apoptotic cells (annexin V-FICT positive/IP positive), and necrotic cells (annexin V-FITC negative/IP positive).
Background: In flow cytometry, cells or beads pass a laser one at a time.

Data set [4] has as its system MCF7 cells. The data set is described as above. As to conditions: MCF7, working concentration 150 nM, 24 hours. The protocol: as §3, §4, §5
Data set [5] relates to MDA-MB-468 cells. The description is as above. The following applies: MDA-MB-468, working concentration 50 nM, 24 hours. On the procedure:
as §3, §4, §5

Consider “5′TGGGGTGGGCGGGCGGGGGTGGGGGTGGT-3′ (DNA, backbone and methylation of C not given here; further chemistry not fully specified) [apMNKQ2]”, for which the “invasion (transwell with Matrigel)” value in data set [1] and in data set [2] was “significant reduction of invasion” each time. Moreover, the “induction of apoptosis (annexin V-FITC/propidium iodide)” value was “capable of inducing apoptosis” in data set [3]; “capable of inducing apoptosis” in data set [4]; “greater and statistically significant” in data set [5]. Further, the “late apoptosis with respect to the control” value in data set [4] is reported as “statistically significant”.
